According to ChEMBL document CHEMBL3612057, “Discovery of indolizines containing triazine moiety as new leads for the development of antitumoral agents targeting mitotic events” (2015):
Calls of active or inactive are those of the source. The rule behind the calls is not given here.

Legend:
[1] = system: CCRF-CEM; test: Cytotoxicity against human CCRF-CEM cells assessed as growth inhibition at 10 uM after 24 hrs by SRB assay; assay type: functional
[2] = system: SK-MEL-28; test: Cytotoxicity against human SK-MEL-28 cells assessed as growth inhibition at 10 uM after 24 hrs by SRB assay; assay type: functional; conditions: for inhibition of growth at 10 µM: SK-MEL-28, 24 h, read-out: GI
[3] = system: OVCAR-3; test: Cytotoxicity against human OVCAR3 cells assessed as growth inhibition at 10 uM after 24 hrs by SRB assay; assay type: functional
[4] = system: OVCAR-8; test: Cytotoxicity against human OVCAR8 cells assessed as growth inhibition at 10 uM after 24 hrs by SRB assay; assay type: functional; conditions: OVCAR-8, 24 h, read-out: GI
[5] = system: MDA-MB-435; test: Cytotoxicity against human MDA-MB-435 cells assessed as growth inhibition at 10 uM after 24 hrs by SRB assay; assay type: functional
[6] = system: NCI-H460; test: Cytotoxicity against human NCI-H460 cells assessed as growth inhibition at 10 uM after 24 hrs by SRB assay; assay type: functional
[7] = system: A549; test: Cytotoxicity against human A549 cells assessed as growth inhibition at 10 uM after 24 hrs by SRB assay; assay type: functional; conditions: for inhibition of growth at 10 µM: A549, 24 h, read-out: GI
[8] = system: SF-295; test: Cytotoxicity against human SF295 cells assessed as growth inhibition at 10 uM after 24 hrs by SRB assay; assay type: functional; conditions: SF-295, 24 h, read-out: GI
[9] = system: SNB-75; test: Cytotoxicity against human SNB75 cells assessed as growth inhibition at 10 uM after 24 hrs by SRB assay; assay type: functional; conditions: SNB-75, 24 h, read-out: GI
[10] = system: HOP-62; test: Cytotoxicity against human HOP62 cells assessed as growth inhibition at 10 uM after 24 hrs by SRB assay; assay type: functional; conditions: for inhibition of growth at 10 µM: HOP-62, 24 h, read-out: GI
[11] = system: UACC-257; test: Cytotoxicity against human UACC257 cells assessed as growth inhibition at 10 uM after 24 hrs by SRB assay; assay type: functional
[12] = Cytotoxicity against human Hs578T cells assessed as growth inhibition at 10 uM after 24 hrs by SRB assay; assay type: functional; conditions: Hs-578T, read-out: GI
[13] = system: OVCAR-4; test: Cytotoxicity against human OVCAR4 cells assessed as growth inhibition at 10 uM after 24 hrs by SRB assay; assay type: functional
[14] = system: ACHN; test: Cytotoxicity against human ACHN cells assessed as growth inhibition at 10 uM after 24 hrs by SRB assay; assay type: functional; conditions: read-out: GI
[15] = system: HOP-92; test: Cytotoxicity against human HOP92 cells assessed as growth inhibition at 10 uM after 24 hrs by SRB assay; assay type: functional
[16] = system: Malme-3M; test: Cytotoxicity against human MALME-3M cells assessed as growth inhibition at 10 uM after 24 hrs by SRB assay; assay type: functional; conditions: for inhibition of growth at 10 µM: read-out: GI
[17] = system: NCI/ADR-RES; test: Cytotoxicity against human NCI/ADR-RES cells assessed as growth inhibition at 10 uM after 24 hrs by SRB assay; assay type: functional; conditions: for inhibition of growth at 10 µM: read-out: GI
[18] = species on record: Ovis aries; test: Inhibition of sheep tubulin polymerization at 100 uM by fluorescence assay
[19] = system: HL-60(TB); test: Cytotoxicity against human HL-60(TB) cells assessed as growth inhibition at 10 uM after 24 hrs by SRB assay; assay type: functional
[20] = system: NCI-H522; test: Cytotoxicity against human NCI-H522 cells assessed as growth inhibition at 10 uM after 24 hrs by SRB assay; assay type: functional; conditions: for inhibition of growth at 10 µM: NCI-H522, 24 h, read-out: GI
[21] = system: RXF 393; test: Cytotoxicity against human RXF393 cells assessed as growth inhibition at 10 uM after 24 hrs by SRB assay; assay type: functional; conditions: RXF 393, 24 h, read-out: GI
[22] = system: RPMI-8226; test: Cytotoxicity against human RPMI8226 cells assessed as growth inhibition at 10 uM after 24 hrs by SRB assay; assay type: functional
[23] = system: SK-MEL-5; test: Cytotoxicity against human SK-MEL-5 cells assessed as growth inhibition at 10 uM after 24 hrs by SRB assay; assay type: functional
[24] = system: NCI-H226; test: Cytotoxicity against human NCI-H226 cells assessed as growth inhibition at 10 uM after 24 hrs by SRB assay; assay type: functional
[25] = system: T47D; test: Cytotoxicity against human T47D cells assessed as growth inhibition at 10 uM after 24 hrs by SRB assay; assay type: functional; conditions: read-out: GI
[26] = system: UACC-62; test: Cytotoxicity against human UACC62 cells assessed as growth inhibition at 10 uM after 24 hrs by SRB assay; assay type: functional; conditions: for inhibition of growth at 10 µM: UACC-62, 24 h, read-out: GI
[27] = system: 786-0; test: Cytotoxicity against human 786-0 cells assessed as growth inhibition at 10 uM after 24 hrs by SRB assay; assay type: functional; conditions: 786-0, 24 h, read-out: GI
[28] = system: SR; test: Cytotoxicity against human SR cells assessed as growth inhibition at 10 uM after 24 hrs by SRB assay; assay type: functional; conditions: for inhibition of growth at 10 µM: read-out: GI
[29] = system: SF-539; test: Cytotoxicity against human SF539 cells assessed as growth inhibition at 10 uM after 24 hrs by SRB assay; assay type: functional; conditions: for inhibition of growth at 10 µM: SF-539, 24 h, read-out: GI
[30] = system: K562; test: Cytotoxicity against human K562 cells assessed as growth inhibition at 10 uM after 24 hrs by SRB assay; assay type: functional
[31] = system: U-251; test: Cytotoxicity against human U251 cells assessed as growth inhibition at 10 uM after 24 hrs by SRB assay; assay type: functional; conditions: for inhibition of growth at 10 µM: U-251, 24 h, read-out: GI
[32] = system: PC-3; test: Cytotoxicity against human PC3 cells assessed as growth inhibition at 10 uM after 24 hrs by SRB assay; assay type: functional; conditions: for inhibition of growth at 10 µM: PC-3, 24 h, read-out: GI
[33] = system: TK-10; test: Cytotoxicity against human TK10 cells assessed as growth inhibition at 10 uM after 24 hrs by SRB assay; assay type: functional; conditions: for inhibition of growth at 10 µM: TK-10, 24 h, read-out: GI
[34] = system: MCF7; test: Cytotoxicity against human MCF7 cells assessed as growth inhibition at 10 uM after 24 hrs by SRB assay; assay type: functional; conditions: MCF7, 24 h, read-out: GI
[35] = system: SK-OV-3; test: Cytotoxicity against human SKOV3 cells assessed as growth inhibition at 10 uM after 24 hrs by SRB assay; assay type: functional; conditions: SK-OV-3, 24 h, read-out: GI
[36] = system: HCT-116; test: Cytotoxicity against human HCT116 cells assessed as growth inhibition at 10 uM after 24 hrs by SRB assay; assay type: functional; conditions: for inhibition of growth at 10 µM: HCT-116, 24 h, read-out: GI
[37] = system: MDA-MB-231; test: Cytotoxicity against human MDA-MB-231 cells assessed as growth inhibition at 10 uM after 24 hrs by SRB assay; assay type: functional; conditions: MDA-MB-231, 24 h, read-out: GI
[38] = system: CAKI-1; test: Cytotoxicity against human CAKI-1 cells assessed as growth inhibition at 10 uM after 24 hrs by SRB assay; assay type: functional

Row | Compound | inhibition of growth at 10 µM [2] [%] | growth inhibition (GI) [3] | inhibition of growth at 10 µM [4] [%] | growth inhibition (GI) [5] | inhibition of growth at 10 µM [8] [%] | inhibition of growth at 10 µM [9] [%] | growth inhibition (GI) [11] | inhibition of growth at 10 µM [12] [%] | inhibition of growth at 10 µM [14] [%] | growth inhibition (GI) [15] | inhibition [18] | growth inhibition (GI) [19] | inhibition of growth at 10 µM [21] [%] | growth inhibition (GI) [23] | inhibition of growth at 10 µM [25] [%] | inhibition of growth at 10 µM [27] [%] | growth inhibition (GI) [30] | inhibition of growth at 10 µM [34] [%] | inhibition of growth at 10 µM [35] [%] | inhibition of growth at 10 µM [37] [%] | further results
1 | COc1nc(OC)nc(-c2cc(C(=O)c3ccc(Cl)cc3)n3ccccc23)n1 | 12 | inactive | 24 | inactive | 33 | -3 | inactive | 46 | 56 | inactive | inactive | inactive | 37 | inactive | 19 | 31 | inactive | 19 | 55 | 43 | inhibition of growth at 10 µM ([1]; read-out: GI): 11%; inhibition of growth at 10 µM ([6]; NCI-H460, 24 h, read-out: GI): 20%; inhibition of growth at 10 µM [7]: 21%; inhibition of growth at 10 µM [10]: 77%; growth inhibition (GI) [13]: inactive; inhibition of growth at 10 µM [16]: 30%; growth inhibition (GI) [17]: inactive; inhibition of growth at 10 µM [20]: 47%; inhibition of growth at 10 µM ([22]; RPMI-8226, 24 h, read-out: GI): 13%; growth inhibition (GI) [24]: inactive; inhibition of growth at 10 µM [26]: 14%; inhibition of growth at 10 µM [28]: 26%; inhibition of growth at 10 µM [29]: 39%; inhibition of growth at 10 µM [31]: 44%; inhibition of growth at 10 µM [32]: 19%; inhibition of growth at 10 µM [33]: 12%; inhibition of growth at 10 µM [36]: 26%; growth inhibition (GI) [38]: inactive
2 | COc1nc(OC)nc(-c2cc(C(=O)c3ccc(Br)cc3)n3c(C)cccc23)n1 | 14 | – | 29 | inactive | 22 | 75 | inactive | 22 | 30 | inactive | inactive | inactive | 36 | inactive | 19 | 14 | inactive | 24 | 20 | 27 | growth inhibition (GI) [1]: inactive; inhibition of growth at 10 µM ([3]; OVCAR-3, 24 h, read-out: GI): 15%; growth inhibition (GI) [6]: inactive; growth inhibition (GI) [7]: inactive; growth inhibition (GI) [10]: inactive; inhibition of growth at 10 µM ([13]; OVCAR-4, 24 h, read-out: GI): 18%; inhibition of growth at 10 µM [16]: 18%; inhibition of growth at 10 µM [17]: 14%; growth inhibition (GI) [20]: inactive; growth inhibition (GI) [22]: inactive; growth inhibition (GI) [24]: inactive; growth inhibition (GI) [26]: inactive; growth inhibition (GI) [28]: inactive; growth inhibition (GI) [29]: inactive; growth inhibition (GI) [31]: inactive; growth inhibition (GI) [32]: inactive; growth inhibition (GI) [33]: inactive; growth inhibition (GI) [36]: inactive; growth inhibition (GI) [38]: inactive
3 | COc1ccc(C(=O)c2cc(-c3nc(OC)nc(OC)n3)c3ccccn23)cc1 | – | inactive | 16 | inactive | 47 | -17 | inactive | 25 | 54 | inactive | inactive | inactive | 59 | inactive | 17 | 27 | inactive | 13 | 54 | 50 | growth inhibition (GI) [1]: inactive; growth inhibition (GI) [2]: inactive; growth inhibition (GI) [6]: inactive; inhibition of growth at 10 µM [7]: 21%; inhibition of growth at 10 µM [10]: 97%; growth inhibition (GI) [13]: inactive; growth inhibition (GI) [16]: inactive; inhibition of growth at 10 µM [17]: 19%; inhibition of growth at 10 µM [20]: 60%; growth inhibition (GI) [22]: inactive; inhibition of growth at 10 µM ([24]; NCI-H226, 24 h, read-out: GI): 12%; inhibition of growth at 10 µM [26]: 11%; inhibition of growth at 10 µM [28]: 19%; inhibition of growth at 10 µM [29]: 32%; inhibition of growth at 10 µM [31]: 56%; inhibition of growth at 10 µM [32]: 18%; inhibition of growth at 10 µM [33]: 18%; inhibition of growth at 10 µM [36]: 36%; inhibition of growth at 10 µM ([38]; CAKI-1, 24 h, read-out: GI): 26%
